Test results as given in patent publication US8921270B2, “Method for pre-emergent weed control using triazine-based herbicide” (Amvac Chemical Corporation, priority 2011, dated 2014).
Read-outs that look alike come from different tables or passages of the source.

What was measured:
[1] = tested on: corn; details: in vivo
Protocol: Several scientific and replicated field research trials were conducted in multiple locations to evaluate weed control and crop tolerance of herbicide compositions containing about 80% by weight of […] active ingredient in the form of a water dispersible granule (WDG). The herbicide compositions were applied to the soil surface with or without weeds present at specific intervals i) before planting ([…]) prior to planting and incorporated into the soil ([…] incorporated), and iii) after planting of the corn, but prior to emergence (preemergence). Small plot research trials were conducted using a statistical design known as Randomized Complete Block Design (RCBD), which assumes that a population of experimental units can be divided into a number of relatively homogeneous subpopulations or blocks. […] In the analysis, the variation among blocks can be partitioned out of the experimental error (MSE), thereby reducing this quantity and increasing the power of the test. […] Crop tolerance was evaluated at intervals of 7 to 14, 21 to 28, and 42 to 56 days after corn emergence in these trials. […] Crop tolerance was evaluated at intervals of 23, 33, 41 and 56 days after corn emergence in these trials. […] Corn injury (height of corn, number of plants emerged) was measured as visual injury (% injury) at three different times during the season. […]

[2] = tested on: corn; assay: Crop tolerance (corn) field trial, Laurel, Md., light soil (Example 2); type: in vivo
Protocol: (§1) Several scientific and replicated field research trials were conducted in multiple locations to evaluate weed control and crop tolerance of herbicide compositions containing about 80% by weight of ametryn active ingredient in the form of a water dispersible granule (WDG). The herbicide compositions were applied to the soil surface with or without weeds present at specific intervals i) before planting (preplant), ii) prior to planting and incorporated into the soil (preplant incorporated), and iii) after planting of the corn, but prior to emergence (preemergence).
(§2) Small plot research trials were conducted using a statistical design known as Randomized Complete Block Design (RCBD), which assumes that a population of experimental units can be divided into a number of relatively homogeneous subpopulations or blocks. […] In the analysis, the variation among blocks can be partitioned out of the experimental error (MSE), thereby reducing this quantity and increasing the power of the test. […]
(§3) Efficacy on weeds and crop tolerance evaluations were conducted at specified intervals for each trial. […] Crop tolerance was evaluated at intervals of 7 to 14, 21 to 28, and 42 to 56 days after corn emergence in these trials. […] In an additional trial, efficacy of ametryn at rates of 1.2, 1.6 and 2.4 lb ai/a applied PRE was evaluated on grass and broadleaf weeds at the same intervals as the earlier trials. […]

[3] = tested on: corn; details: in vivo; remark: listed apart in the source
Protocol: as §1, §2, §3

[4] = tested on: Goosegrass; assay: Weed control field trial, Laurel, Md., light textured soil (Example 4); type: in vivo; details: 0.8, 1.6, 2.4 lb ai/a; 14 days preplant, 2 days preplant, PRE; 21 and 35 days after corn emergence
Protocol: as §1, §2, §3

[5] = tested on: Lambsquaters; assay: as above; type: in vivo; details: 0.8, 1.6, 2.4 lb ai/a; 14 days preplant, 2 days preplant, PRE; 21 and 35 days after corn emergence
Protocol: as §1, §2, §3

[6] = tested on: Cocklebur; assay: Weed control field trial, Laurel, Md., light textured soil (Example 5); type: in vivo; details: 1.2, 1.6, 2.4 lb ai/a PRE; 27 and 56 days after corn emergence
Protocol: as §1
(§4) Small plot research trials were conducted using a statistical design known as Randomized Complete Block Design (RCBD), which assumes that a population of experimental units can be divided into a number of relatively homogeneous subpopulations or blocks. The treatments are then randomly assigned to experimental units such that each treatment occurs equally often (usually once) in each block—i.e., each block contains all treatments. Blocks usually represent levels of naturally occurring differences or sources of variation that are unrelated to the treatments. In the analysis, the variation among blocks can be partitioned out of the experimental error (MSE), thereby reducing this quantity and increasing the power of the test. See, Clewer, A. G., and D. H. Scarisbrick. 2001. Practical statistics and experimental design for plant and crop science. John Wiley & Sons Ltd., New York. crop science. Treatment size was typically 4 rows of corn on 30-inch row spacing×30 feet long replicated 3 to 4 times. Preplant, preplant incorporated (PPI), or preemergence (PRE) treatments were uniformly applied with a hand-held backpack sprayer pressurized with compressed air or carbon dioxide (CO2) as the propellant to simulate commercial scale application. Treatments were applied using flat fan nozzle or spray nozzles at from 30 to 35 pounds per square inch (psi) delivering from 15 to 20 gallons of finished spray solution per acre.
(§5) Efficacy on weeds and crop tolerance evaluations were conducted at specified intervals for each trial. Ametryn herbicide (80% WDG) was applied to the soil at the times relative to planting as indicated at rates of 0.8, 1.2, 1.6, and 2.4 pounds of active ingredient per acre (lb ai/a) at various days preplant up to right before planting (0 day preplant), or immediately following planting (PRE), but before crop emergence. Crop tolerance was evaluated at intervals of 7 to 14, 21 to 28, and 42 to 56 days after corn emergence in these trials. Crop injury, if observed, was reported on a 0 to 100% visual rating scale and the type of injury (e.g., stunting) was noted. The efficacy of ametryn at a rate of 0.8, 1.2, 1.6 and 2.4 lbs ai/a applied 7 to 14 days preplant was evaluated on grass and broadleaf weeds at intervals of 7 to 14, 21 to 28, and 42 to 56 days after corn emergence. Efficacy trials were also conducted in no tillage and reduced tillage cropping systems, allowing for evaluations of existing weeds at application (i.e., burndown) and residual control of weeds which germinate following application. In an additional trial, efficacy of ametryn at rates of 1.2, 1.6 and 2.4 lb ai/a applied PRE was evaluated on grass and broadleaf weeds at the same intervals as the earlier trials. Efficacy in the later trials was conducted in both conventional and reduced tillage systems, which allowed for evaluations of residual weed control following application. A local commercial corn hybrid was planted in each trial location.
(§6) A weed control field trial was conducted in Laurel, Md. on a light textured soil. Ametryn herbicide (80% WDG) was applied preemergence to bare soil in the field to Giant Foxtail, Velvetleaf, Waterhemp, Giant Ragweed, Morningglory, and Cocklebur at rates of 1.2, 1.6 and 2.4 pounds of active ingredient per acre (lb ai/a) immediately following planting (PRE) and prior to corn emergence. The application volume was between 15 and 25 gallons per acre. […]

[7] = tested on: Giant Foxtail; assay: as above; type: in vivo; details: 1.2, 1.6, 2.4 lb ai/a PRE; 27 and 56 days after corn emergence
Protocol: as §1, §4, §5, §6

[8] = tested on: Giant Ragweed; assay: as above; type: in vivo; details: 1.2, 1.6, 2.4 lb ai/a PRE; 27 and 56 days after corn emergence
Protocol: as §1, §4, §5, §6

[9] = tested on: Morningglory; assay: as above; type: in vivo; details: 1.2, 1.6, 2.4 lb ai/a PRE; 27 and 56 days after corn emergence
Protocol: as §1, §4, §5, §6

[10] = tested on: Velvetleaf; assay: as above; type: in vivo; details: 1.2, 1.6, 2.4 lb ai/a PRE; 27 and 56 days after corn emergence
Protocol: as §1, §4, §5, §6

[11] = tested on: Waterhemp; assay: as above; type: in vivo; details: 1.2, 1.6, 2.4 lb ai/a PRE; 27 and 56 days after corn emergence
Protocol: as §1, §4, §5, §6

[12] = tested on: corn; details: in vivo; remark: listed apart in the source
Protocol: as §1, §2, §3

[13] = tested on: Cocklebur; assay: Weed control field trial, Richland, Iowa, fine textured soil (Example 6); type: in vivo; details: PRE; 4 weeks observation after application
Protocol: as §1, §4, §5
(§7) A weed control field trial was conducted in Richland, Iowa on a fine textured soil (e.g., silty clay loam). […]

[14] = tested on: Giant Foxtail; assay: as above; type: in vivo; details: PRE; 4 weeks observation after application
Protocol: as §1, §4, §5, §7

[15] = tested on: Giant Ragweed; assay: as above; type: in vivo; details: PRE; 4 weeks observation after application
Protocol: as §1, §4, §5, §7

[16] = tested on: Morningglory; assay: as above; type: in vivo; details: PRE; 4 weeks observation after application
Protocol: as §1, §4, §5, §7

[17] = tested on: Velvetleaf; assay: as above; type: in vivo; details: PRE; 4 weeks observation after application
Protocol: as §1, §4, §5, §7

[18] = tested on: Waterhemp; assay: as above; type: in vivo; details: PRE; 4 weeks observation after application
Protocol: as §1, §4, §5, §7

[19] = tested on: corn; details: in vivo; remark: listed apart in the source
Protocol: as §1, §2, §3

[20] = tested on: Giant Foxtail; assay: Weed control field trial, Wyoming, Ill., medium textured soil (Example 7); type: in vivo; details: PRE; 8 weeks observation after application
Protocol: as §1, §4
(§8) Efficacy on weeds and crop tolerance evaluations were conducted at specified intervals for each trial. […] Crop tolerance was evaluated at intervals of 7 to 14, 21 to 28, and 42 to 56 days after corn emergence in these trials. […] The efficacy of ametryn at a rate of 0.8, 1.2, 1.6 and 2.4 lbs ai/a applied 7 to 14 days preplant was evaluated on grass and broadleaf weeds at intervals of 7 to 14, 21 to 28, and 42 to 56 days after corn emergence. […] In an additional trial, efficacy of ametryn at rates of 1.2, 1.6 and 2.4 lb ai/a applied PRE was evaluated on grass and broadleaf weeds at the same intervals as the earlier trials. […]

[21] = tested on: Lambsquarters; assay: as above; type: in vivo; details: PRE; 8 weeks observation after application
Protocol: as §1, §4, §8

[22] = tested on: Redroot Pigweed; assay: as above; type: in vivo; details: PRE; 8 weeks observation after application
Protocol: as §1, §4, §8

[23] = tested on: Velvetleaf; assay: as above; type: in vivo; details: PRE; 8 weeks observation after application
Protocol: as §1, §4, §8

[24] = tested on: corn; details: in vivo; remark: listed apart in the source
Protocol: as §1, §2, §3

[25] = tested on: Giant Foxtail; assay: Weed control field trial, Fishers, Ind., fine textured soil (Example 8); type: in vivo; details: PRE, rate of 1.6 lb ai/a
Protocol: as §1, §4, §8

[26] = tested on: Lambsquarters; assay: as above; type: in vivo; details: PRE, rate of 1.6 lb ai/a
Protocol: as §1, §4, §8

[27] = tested on: Redroot Pigweed; assay: as above; type: in vivo; details: PRE, rate of 1.6 lb ai/a
Protocol: as §1, §4, §8

[28] = tested on: Velvetleaf; assay: as above; type: in vivo; details: PRE, rate of 1.6 lb ai/a
Protocol: as §1, §4, §8

[29] = tested on: corn; assay: Corn injury in weed control field trial, Laurel, Md., light textured soil (Example 9); type: in vivo
Protocol: as §1, §4, §8

[30] = tested on: corn; details: in vivo; remark: listed apart in the source
Protocol: as §1, §2, §3

[31] = tested on: Giant Foxtail; assay: Weed control field trial, Geneva, Minn., medium textured soil (Example 10); type: in vivo; details: PRE; 32 days after application
Protocol: as §1, §4, §8

[32] = tested on: Lambsquarters; assay: as above; type: in vivo; details: PRE; 32 days after application
Protocol: as §1, §4, §8

[33] = tested on: Velvetleaf; assay: as above; type: in vivo; details: PRE; 32 days after application
Protocol: as §1, §4, §8

[34] = tested on: Waterhemp; assay: as above; type: in vivo; details: PRE; 60 days after application
Protocol: as §1, §4, §8

[35] = tested on: corn; details: in vivo; remark: listed apart in the source
Protocol: as §1, §2, §3

[36] = tested on: Green Foxtail; assay: Weed control field trial, York, Nebr., medium textured soil (Example 11); type: in vivo; details: PRE; 4 weeks after application
Protocol: as §1
(§9) Small plot research trials were conducted using a statistical design known as Randomized Complete Block Design (RCBD), which assumes that a population of experimental units can be divided into a number of relatively homogeneous subpopulations or blocks. The treatments are then randomly assigned to experimental units such that each treatment occurs equally often (usually once) in each block—i.e., each block contains all treatments. Blocks usually represent levels of naturally occurring differences or sources of variation that are unrelated to the treatments. In the analysis, the variation among blocks can be partitioned out of the experimental error (MSE), thereby reducing this quantity and increasing the power of the test. See, Clewer, A. G., and D. H. Scarisbrick. 2001. Practical statistics and experimental design for plant and crop science. John Wiley & Sons Ltd., New York. crop science. […]
as §8

[37] = tested on: Velvetleaf; assay: as above; type: in vivo; details: PRE; 4 weeks after application
Protocol: as §1, §9, §8

[38] = tested on: Waterhemp; assay: as above; type: in vivo; details: PRE; 4 weeks after application
Protocol: as §1, §9, §8

CCNc1nc(NC(C)C)nc(SC)n1 [ametryn, 2-ethylamino-4-isopropylamino-6-methylthio-s-triazine]
Corn injury (visual injury) [1]: No injury
Corn yield ([2]; even though visual injury was measured at certain times): no reduction in yield
Corn injury ([2]; in vivo): non-significant or no injury
Corn injury [3]: No injury
Percent weed control [4]: significant improvement of weed control over the untreated treatment
Percent weed control [5]: significant improvement of weed control over the untreated treatment
Percent weed control [6]: significant improvement of weed control over the untreated treatment
Percent weed control [7]: significant improvement of weed control over the untreated treatment
Percent weed control [8]: significant improvement of weed control over the untreated treatment
Percent weed control [9]: significant improvement of weed control over the untreated treatment
Percent weed control [10]: significant improvement of weed control over the untreated treatment
Percent weed control [11]: significant improvement of weed control over the untreated treatment
Percent corn injury (corn safety) [12]: excellent corn safety
Weed control [13]: moderate to good control
Weed control [14]: moderate to good control
Weed control [15]: moderate to good control
Weed control [16]: moderate to good control
Weed control [17]: moderate to good control
Weed control [18]: excellent control
Percent corn injury (corn safety) [19]: excellent corn safety
Weed control [20]: good control
Weed control [21]: good control
Weed control [22]: good control
Weed control [23]: good control
Percent corn injury (safety to corn) [24]: excellent safety
Weed control [25]: moderate weed control
Weed control [26]: good weed control
Weed control [27]: good weed control
Weed control [28]: moderate weed control
Corn yield ([29]; even when minor injury was observed): no negative effect on yield
Corn injury ([29]; in vivo): Minor injury
Percent corn injury (safety to corn versus commercial standard) ([29]; in vivo): as safe to corn as a commercial standard of isoxaflutole with cyprosulfamide
Safety to corn ([29]; in vivo): excellent safety
Percent corn injury (safety to corn) [30]: acceptable safety
Weed control [31]: good control
Weed control [32]: good control
Weed control [33]: good control
Weed control [34]: moderate control
Percent corn injury (safety to corn) [35]: acceptable safety
Weed control [36]: good control
Weed control [37]: moderate control
Weed control [38]: good control
